Laboratory results: PubChem BioAssay (NCI)
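The compound was tested at five concentrations on cells cultured in 96-well plates, with a 48-hour exposure period. At the TGI there is no net growth.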

Tests used:
Test in all cases: NCI-60 cell line screen, 48 h
[1] = test system: 786-0 renal
[2] = test system: A498 renal
[3] = test system: ACHN renal
[4] = test system: CCRF-CEM leukemia
[5] = test system: COLO 205 colon
[6] = test system: DLD-1 colon
[7] = test system: DMS 114 small cell lung
[8] = test system: DMS 273 small cell lung
[9] = test system: EKVX NSCLC
[10] = test system: HCC-2998 colon
[11] = test system: HCT-116 colon
[12] = test system: HCT-15 colon
[13] = test system: HL-60(TB) leukemia
[14] = test system: HOP-18 NSCLC
[15] = test system: HOP-62 NSCLC
[16] = test system: HOP-92 NSCLC
[17] = test system: HT29 colon
[18] = test system: IGROV1 ovarian
[19] = test system: K-562 leukemia
[20] = test system: KM12 colon
[21] = test system: KM20L2 colon
[22] = test system: LOX IMVI melanoma
[23] = test system: LXFL 529 NSCLC
[24] = test system: M14 melanoma
[25] = test system: M19-MEL melanoma
[26] = test system: MALME-3M melanoma
[27] = test system: MOLT-4 leukemia
[28] = test system: NCI-H226 lung
[29] = test system: NCI-H23 lung
[30] = test system: NCI-H460 lung
[31] = test system: NCI-H522 lung
[32] = test system: OVCAR-3 ovarian
[33] = test system: OVCAR-4 ovarian
[34] = test system: OVCAR-5 ovarian
[35] = test system: OVCAR-8 ovarian
[36] = test system: RPMI-8226 leukemia
[37] = test system: RXF 393 renal
[38] = test system: RXF-631 renal
[39] = test system: SF-268 CNS
[40] = test system: SF-295 CNS
[41] = test system: SF-539 CNS
[42] = test system: SK-MEL-2 melanoma
[43] = test system: SK-MEL-28 melanoma
[44] = test system: SK-MEL-5 melanoma
[45] = test system: SK-OV-3 ovarian
[46] = test system: SN12C renal
[47] = test system: SNB-19 CNS
[48] = test system: SNB-75 CNS
[49] = test system: SNB-78 CNS
[50] = test system: SR leukemia
[51] = test system: SW-620 colon
[52] = test system: TK-10 renal
[53] = test system: U251 CNS
[54] = test system: UACC-257 melanoma
[55] = test system: UACC-62 melanoma
[56] = test system: UO-31 renal
[57] = test system: XF 498 CNS
[58] = test system: A549 NSCLC
[59] = test system: CAKI-1 renal

## BrC1=CC=C2NC=CC3=CC=NC1C32 (stereo not drawn)
[1]
  TGI: > 100 µM
[2]
  TGI: 85.4 µM
[3]
  TGI: > 93.8 µM
[4]
  TGI: 28.6 µM
[5]
  TGI: 58.5 µM
[6]
  TGI: > 65.2 µM
[7]
  TGI: 58.1 µM
[8]
  TGI: > 92.5 µM
[9]
  TGI: > 96.3 µM
[10]
  TGI: > 100 µM
[11]
  TGI: 21.1 µM
[12]
  TGI: > 100 µM
[13]
  TGI: 12.1 µM
[14]
  TGI: 66.8 µM
[15]
  TGI: > 100 µM
[16]
  TGI: 71.2 µM
[17]
  TGI: > 66.2 µM
[18]
  TGI: > 100 µM
[19]
  TGI: 52.8 µM
[20]
  TGI: > 100 µM
[21]
  TGI: > 100 µM
[22]
  TGI: 21.4 µM
[23]
  TGI: > 70 µM
[24]
  TGI: 56.2 µM
[25]
  TGI: 30.1 µM
[26]
  TGI: 67.1 µM
[27]
  TGI: 15.6 µM
[28]
  TGI: 45.9 µM
[29]
  TGI: > 82.8 µM
[30]
  TGI: 17.9 µM
[31]
  TGI: 27.3 µM
[32]
  TGI: 80.6 µM
[33]
  TGI: 97.3 µM
[34]
  TGI: > 75.5 µM
[35]
  TGI: > 94 µM
[36]
  TGI: 37.8 µM
[37]
  TGI: 51.7 µM
[38]
  TGI: > 100 µM
[39]
  TGI: > 92.5 µM
[40]
  TGI: > 100 µM
[41]
  TGI: > 100 µM
[42]
  TGI: 56.9 µM
[43]
  TGI: > 100 µM
[44]
  TGI: 45.4 µM
[45]
  TGI: > 100 µM
[46]
  TGI: > 100 µM
[47]
  TGI: > 75 µM
[48]
  TGI: 98.9 µM
[49]
  TGI: > 100 µM
[50]
  TGI: 26 µM
[51]
  TGI: > 60.6 µM
[52]
  TGI: 99.8 µM
[53]
  TGI: > 100 µM
[54]
  TGI: 98.8 µM
[55]
  TGI: 22.6 µM
[56]
  TGI: 51.3 µM
[57]
  TGI: 48 µM

## O=[N+]([O-])c1nccn1CC(O)CN1CC1 (stereo not drawn)
[1]
  TGI: > 100 µM
[2]
  TGI: > 100 µM
[58]
  TGI: > 100 µM
[3]
  TGI: > 100 µM
[59]
  TGI: > 100 µM
[4]
  TGI: > 100 µM
[5]
  TGI: > 100 µM
[6]
  TGI: > 100 µM
[7]
  TGI: > 100 µM
[8]
  TGI: > 100 µM
[9]
  TGI: > 100 µM
[11]
  TGI: > 100 µM
[12]
  TGI: > 100 µM
[13]
  TGI: 73.1 µM
[14]
  TGI: > 100 µM
[15]
  TGI: > 100 µM
[17]
  TGI: > 100 µM
[18]
  TGI: > 100 µM
[19]
  TGI: > 100 µM
[20]
  TGI: > 100 µM
[21]
  TGI: > 100 µM
[23]
  TGI: > 100 µM
[24]
  TGI: > 100 µM
[25]
  TGI: > 100 µM
[26]
  TGI: > 100 µM
[27]
  TGI: > 100 µM
[28]
  TGI: > 100 µM
[29]
  TGI: > 100 µM
[30]
  TGI: > 100 µM
[31]
  TGI: 50.9 µM
[32]
  TGI: > 100 µM
[33]
  TGI: > 100 µM
[34]
  TGI: > 100 µM
[35]
  TGI: > 100 µM
[36]
  TGI: > 100 µM
[37]
  TGI: 98.2 µM
[38]
  TGI: > 100 µM
[39]
  TGI: > 100 µM
[40]
  TGI: > 100 µM
[41]
  TGI: > 100 µM
[42]
  TGI: > 100 µM
[43]
  TGI: > 100 µM
[44]
  TGI: > 100 µM
[45]
  TGI: 94.7 µM
[46]
  TGI: > 100 µM
[47]
  TGI: > 100 µM
[48]
  TGI: > 100 µM
[49]
  TGI: > 100 µM
[50]
  TGI: > 100 µM
[51]
  TGI: > 100 µM
[52]
  TGI: > 100 µM
[53]
  TGI: > 100 µM
[54]
  TGI: > 100 µM
[55]
  TGI: > 100 µM
[56]
  TGI: > 100 µM
[57]
  TGI: > 100 µM
